Data published in publication PMC10287695, “Non-covalent inhibitors of thioredoxin glutathione reductase with schistosomicidal activity in vivo” (Nature Communications, 2023).
Values joined by “and” are separate entries in the source; they are usually repeats but may differ in a detail not shown here. Equal values may be shown once.

How the values were obtained:
TGR = target: T1, TGR (Schistosoma mansoni, UniProt Q962Y6, X597U); assay: Superoxide production (pyrogallol red); assay type: biochemical, S. mansoni; details: replicates
T1 construct: made in house
Procedure, shortened: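 TGR (500 nM) with 100 µM NADPH and 20–50 µM inhibitor was preincubated at room temperature for 30 min or 2 h. Samples were then added to 50 µM pyrogallol red with 300 µM NADPH, ± SOD, and A340/A540 were followed for 2 h.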

[1] = test system: S. mansoni adult worms in mice; assay: Schistosomicidal efficacy in infected mice, adult worms (42 d.p.i.); assay type: in vivo; details: for Egg burden, Treated, individual mice / Worm burden, Treated, individual mice: Adult worm; for Egg burden, Treated, individual mice: eggs per 50 mg liver (Fig. 6); for decrease in egg burden / decrease in worm burden: mice
Procedure: (§1) To assess the efficacy of the compounds in vivo against juvenile and adult worms, five female Swiss-Webster mice were randomly assigned for the control and experiment groups using a randomization tool embedded in GraphPad Prism. Mice were percutaneously exposed for 1 h to about 80 S. mansoni cercariae. Three- and six-weeks post infection, respectively, for juvenile and adult worms, mice were treated depending on their weight with formulations of the compounds, while the control mice received only the vehicle. Compounds were formulated with 10% DMSO and 10% Tween-80, and vortexed to obtain a uniform mixture. The mixture was sonicated twice for 5 min each time using a digital ultrasonic cleaner heated to 50 °C. Sodium chloride 0.9% (80% normal saline) was added to the mixture, briefly vortexed and sonicated one more time using the same conditions as previous. The investigators were blinded by which group of mice received a treatment and the vehicle, as injection was done by technicians from the Comparative Research Center of Rush University Medical Center. Using a 26 G, 3/8 in intradermal bevel needle, each mouse was administered intraperitoneally with 100 µl of the formulated compound suspension at 50 mg/kg, 100 mg/kg and 200 mg/kg. Mice treated three weeks post infection for juvenile worms were euthanized three weeks post treatment and mice treated six weeks post infection were euthanized one week post treatment with 0.018 ml of Euthasol and 5.85 mg/ml heparin and perfused. The mesenteric and hepatic portal veins of the mice were carefully scanned under the microscope to extract any remaining S. mansoni adult worms and worm burdens were determined. Egg burden was determined by weighing 50 mg of liver tissue from each of treated and control mice. The liver tissues were digested with 5% KOH at 37 °C overnight and washed twice with PBS. The number of eggs per 50 mg of liver tissue was determined using a Keyence BZ-X800 microscope using the egg autofluorescence.

[2] = test system: S. mansoni juvenile worms in mice; assay: Schistosomicidal efficacy in infected mice, juvenile worms (21 d.p.i.); assay type: in vivo; details: for Egg burden, Treated, individual mice / Worm burden, Treated, individual mice: 2 x 100 mg/kg, Juvenile worm; for Egg burden, Treated, individual mice: eggs per 50 mg liver (Fig. 6); for decrease in egg burden / decrease in worm burden: mice, 2 x 100 mg/kg at 21 d.p.i. (juvenile worms)
Procedure: as §1

[3] = second of the two columns per substance (condition not given)
[4] = 1 x 100 mg/kg i.p. at 42 d.p.i.
[5] = 2 x 100 mg/kg i.p. (1: bid at 42 d.p.i.; 6: at 42 and 45 d.p.i.)
[6] = 1 x 100 mg/kg, listed as 8VP192
[7] = 2 x 100 mg/kg, listed as 8VP192

Cc1oc(-c2ccc3c(c2)OCO3)nc1CN[C@@H]1C[C@@H]2C[C@H]([C@H]1C)C2(C)C [Compound 1]
Superoxide production, Pyrogallol red consumption monitored ΔA540 (TGR; condition not given): -0.0003735 and -0.0003395 and -0.0002315 | Superoxide production, Pyrogallol red consumption monitored ΔA540 (TGR; [3]): -9.411e-5 and -9.234e-5 and -8.721e-5 | Egg burden, Treated, individual mice ([1]; 1 x 100 mg/kg, listed as 8VP70): 1302 and 1436 and 1582 and 1478 and 1434 | Worm burden, Treated, individual mice ([1]; 1 x 100 mg/kg, listed as 8VP70): 15 and 16 and 12 | Egg burden, Treated, individual mice ([1]; 2 x 100 mg/kg, listed as 8VP70): 1572 and 1426 and 1565 and 1335 and 1329 | Worm burden, Treated, individual mice ([1]; 2 x 100 mg/kg, listed as 8VP70): 12 and 10 and 9 and 8 | decrease in egg burden [1, 4]: 40% and 40.5% | decrease in worm burden [1, 4]: 44% and 43.5% | decrease in egg burden [1, 5]: 48% and 47.5% | decrease in worm burden [1, 5]: 54% and 53.6% | Egg burden, Treated, individual mice ([2]; listed as 8VP70): 1567 and 1683 and 1698 and 1583 and 1670 | Worm burden, Treated, individual mice ([2]; listed as 8VP70): 21 and 22 and 19 and 20 | decrease in egg burden [2]: 31% | decrease in worm burden [2]: 28.2% and 28%

C#CCN(Cc1nc(-c2ccccc2)oc1C)[C@@H]1C[C@@H]2C[C@H]([C@H]1C)C2(C)C [Compound 6]
Superoxide production, Pyrogallol red consumption monitored ΔA540 (TGR; condition not given): -0.0001397 and -0.0001399 | Superoxide production, Pyrogallol red consumption monitored ΔA540 (TGR; [3]): -5.466e-5 and -1.08e-5 and -2.977e-5 | Egg burden, Treated, individual mice [1, 6]: 2001 and 2098 and 2074 and 2073 | Worm burden, Treated, individual mice [1, 6]: 18 and 19 and 11 and 14 and 12 | Egg burden, Treated, individual mice [1, 7]: 2011 and 2073 and 2001 and 2098 and 2074 | Worm burden, Treated, individual mice [1, 7]: 23 and 26 and 25 and 20 and 22 | decrease in egg burden [1, 4]: 3% and 2.8% | decrease in worm burden [1, 4]: 34% and 33.9% | decrease in egg burden [1, 5]: 18% and 18.2% | decrease in worm burden [1, 5]: 38% and 38.39% | Egg burden, Treated, individual mice ([2]; listed as 8VP192): 2214 and 2212 and 2241 and 2153 and 2264 | Worm burden, Treated, individual mice ([2]; listed as 8VP192): 28 and 25 and 23 and 18 and 26 | decrease in egg burden [2]: 6.8% and 7% | decrease in worm burden [2]: 15.5% and 16%
